# Patent publication US20130217678A1, “PHARMACEUTICAL AGENT COMPRISING QUINOLONE COMPOUND” (OTSUKA PHARMACEUTICAL CO., LTD., priority 2008, published 2013)
# Legend:
# [1] = system: human neuroblastoma cell lines SH-SY5Y treated with 1-methyl-4-phenylpyridinium (MPP+); assay: Improvement of mitochondrial function (Alamar Blue mitochondrial oxidation reduction activity) in MPP+-treated SH-SY5Y cells; assay type: cell-based; settings: 1.5 mM MPP+, relative to cells in DMSO alone = 100%, read-out: Fluorescence Intensity (%); for activity at 0.01 µg/mL: compound 0.01 μg/ml; for activity at 0.03 µg/mL: compound 0.03 μg/ml; for activity at 0.1 µg/mL: compound 0.1 μg/ml; for activity at 0.3 µg/mL: compound 0.3 μg/ml; for activity at 1 µg/mL: compound 1 μg/ml
# Method: In human neuroblastoma cell lines SH-SY5Y in which mitochondrial function was damaged by MPP^+ treatment (Bollimuntha S. et al., J Biol Chem, 280, 2132-2140 (2005) and Shang T. et al., J Biol Chem, 280, 34644-34653 (2005)), the improvement of mitochondrial function was evaluated on the basis of the measurement value for mitochondrial oxidation reduction activity using Alamar Blue fluorescent dye after the compound addition (Nakai M. et al, Exp Neurol, 179, 103-110 (2003)).
# The human neuroblastoma cell lines SH-SY5Y were cultured in Dulbecco's Modified Eagle's Medium containing 10% fetal bovine serum (DMEM containing 50 units/ml penicillin and 50 μg/ml streptomycin as antibiotics) at 37° C. in the presence of 5% carbon dioxide. Cells were scattered on a poly-D-lysine-coated 96-well black plate at a concentration of 3−6×10^4 cells/cm^2 (medium amount: 100 μl/well) and cultured in the medium for two days. Further, the medium was changed to DMEM containing a 1% N2 supplement (N2-DMEM) or to a medium (100 μl/well) in which 1.5 mM MPP^+ was dissolved. The cells were cultured therein for 39 to 48 hours, and then subjected to a mitochondrial oxidation reduction activity measurement system. A sample compound that had been previously dissolved in dimethyl sulfoxide (DMSO) was diluted with N2-DMEM and added in a volume of 10 μl/well 24 hours before the activity measurement (final compound concentration: 0.01 to 1 μg/ml).
# After removal of the medium by suction, a balanced salt solution containing 10% Alamar Blue (154 mM sodium chloride, 5.6 mM potassium chloride, 2.3 mM calcium chloride, 1.0 mM magnesium chloride, 3.6 mM sodium hydrogen carbonate, 5 mM glucose, 5 mM HEPES, pH 7.2) was added in a volume of 100 μl/well, and reacted in an incubator at 37° C. for 1 hour. The fluorescent intensity was detected using a fluorescence detector (a product of Hamamatsu Photonics K.K., excitation wavelength: 530 nm, measurement wavelength: 580 nm) to thereby measure the mitochondrial oxidation reduction activity.
# The fluorescent intensity of the well of the cells cultured in a medium containing MPP^+ and each of the sample compounds was relatively evaluated based on the 100% fluorescent intensity of the well of the cells cultured in a medium containing DMSO alone (final concentration: 0.1%).
Compound,activity at 0.01 µg/mL [1],activity at 0.03 µg/mL [1],activity at 0.1 µg/mL [1],activity at 0.3 µg/mL [1],activity at 1 µg/mL [1],melting point
"CCCOc1cc(F)cc2c(=O)c(-c3ccc(OC)cc3)c[nH]c12 [Example 34, 6-Fluoro-3-(4-methoxyphenyl)-8-propoxy-1H-quinolin-4-one]",47%,53%,53%,63%,53%,153 to 154 °C
"CCCOc1c(OC)cc(C)c2c(=O)c(-c3ccc(OC)cc3)c[nH]c12 [Example 37, 7-Methoxy-3-(4-methoxyphenyl)-5-methyl-8-propoxy-1H-quinolin-4-one]",47%,54%,55%,60%,59%,195 to 196 °C
"CCCOc1ccc(OC)c2c(=O)c(-c3ccc(Cl)cc3Cl)c[nH]c12 [Example 38, 3-(2,4-Dichlorophenyl)-5-methoxy-8-propoxy-1H-quinolin-4-one]",47%,54%,67%,75%,65%,125 °C
"CCCOc1ccc(OC)c2c(=O)c(-c3cccc4ccccc34)c[nH]c12 [Example 51, 5-Methoxy-3-naphthalen-1-yl-8-propoxy-1H-quinolin-4-one]",37%,45%,54%,65%,49%,130 to 133 °C
"CCCOc1ccc(C)c2c(=O)c(-c3ccsc3)c[nH]c12 [Example 58, 5-Methyl-8-propoxy-3-thiophen-3-yl-1H-quinolin-4-one]",42%,53%,60%,61%,55%,104 to 107 °C
"CCCOc1ccc(C)c2c(=O)c(-c3ccc4c(c3)OCO4)c[nH]c12 [Example 60, 3-Benzo[1,3]dioxol-5-yl-5-methyl-8-propoxy-1H-quinolin-4-one]",52%,65%,75%,70%,44%,110 to 115 °C
"CCCOc1ccc(C)c2c(=O)c(-c3csc4ccccc34)c[nH]c12 [Example 63, 3-Benzo[b]thiophen-3-yl-5-methyl-8-propoxy-1H-quinolin-4-one]",40%,48%,57%,43%,21%,80 to 82 °C
"CCCOc1ccc(COC)c2c(=O)c(-c3ccc(OC)cc3)c[nH]c12 [Example 64, 5-Methoxymethyl-3-(4-methoxyphenyl)-8-propoxy-1H-quinolin-4-one]",51%,56%,63%,53%,38%,81 to 83 °C
"COc1ccc(-c2c[nH]c3c(N4CCCC4)ccc(C)c3c2=O)cc1 [Example 68, 3-(4-Methoxyphenyl)-5-methyl-8-pyrrolidin-1-yl-1H-quinolin-4-one]",49%,56%,62%,57%,33%,177 to 178 °C
"CCCCc1ccc(C(=O)N(C)C)c2c(=O)c(-c3ccc(OC)cc3)c[nH]c12 [Example 82, 8-Butyl-3-(4-methoxyphenyl)-4-oxo-1,4-dihydroquinolin-5-carboxylic acid dimethylamide]",63%,62%,62%,69%,81%,198 to 200 °C
"COc1ccc(-c2c[nH]c3c(OCC4CC4)cc(C)c(C)c3c2=O)cc1 [Example 83, 8-Cyclopropylmethoxy-3-(4-methoxyphenyl)-5,6-dimethyl-1H-quinolin-4-one]",65%,70%,67%,62%,29%,99 to 101 °C
"COc1ccc(-c2c[nH]c3c(Br)ccc(C)c3c2=O)cc1 [Example 86, 8-Bromo-3-(4-methoxyphenyl)-5-methyl-1H-quinolin-4-one]",60%,65%,65%,65%,52%,185 to 186 °C
"CCCOc1ccc(C(=O)N(C)C)c2c(=O)c(-c3ccc(OC)cc3)c[nH]c12 [Example 87, 3-(4-Methoxyphenyl)-4-oxo-8-propoxy-1,4-dihydroquinolin-5-carboxylic acid dimethylamide]",57%,57%,60%,65%,66%,218 to 220 °C
"CCCOc1ccc(C)c2c(=O)c(-c3ccncc3)c[nH]c12 [Example 95, 5-Methyl-8-propoxy-3-pyridin-4-yl-1H-quinolin-4-one]",51%,56%,57%,61%,47%,112 to 113 °C
"COc1ccc(-c2c[nH]c3c(-c4ccco4)ccc(C)c3c2=O)cc1 [Example 96, 8-Furan-2-yl-3-(4-methoxyphenyl)-5-methyl-1H-quinolin-4-one]",54%,64%,68%,60%,23%,129 to 131 °C
"COc1ccc(OCC2CC2)c2[nH]c(C)c(-c3ccco3)c(=O)c12 [Example 109, 8-Cyclopropylmethoxy-3-furan-2-yl-5-methoxy-2-methyl-1H-quinolin-4-one]",49%,62%,65%,82%,73%,189 to 190 °C
